Series [1] has as its system K562-BCMA positive cells. Description: Cytotoxicity assay, CAR T cells co-cultured with K562-BCMA positive and negative cells. Format: cell-based. As to conditions: 20 nM AP21967, 24 hours, E:T 5:1. How it is done:
(§1) Human PBMCs (1×10^6 cells/mL) were activated with soluble anti-CD3 and anti-CD28 antibodies (50 ng/ml) on day 0. After 24 hr incubation, 1×10^6 cells were transduced with lentivirus encoding either an anti-BCMA CAR or an anti-BCMA salvage CAR. The transduced cells were washed and resuspended at 0.3×10^6 cells/mL growth medium on day 3. The CAR T cells were cultured for 7 days with IL-2 (250 IU/mL) containing medium changed every other day.
The cytotoxic potential of anti-BCMA CAR T cells and anti-BCMA salvage CAR T cells was analyzed by co-culturing day 10 CAR T cells (E, effector cells) with a 50:50 mixture of K562-BCMA positive cells (GFP positive) (T, target cells) and K562-BCMA negative cells (BFP positive) for 24 hours at an E:T ratio of 5:1. Cells were co-cultured with or without 20 nM AP21967 (a non-immunosuppressive rapamycin analog). The ratio of K562-BCMA positive cells to K562-BCMA negative cells is a direct readout of CAR T cell cytotoxicity.

Series [2] has as its system K562-BCMA positive cells. Description: IFNγ release assay (ELISA), CAR T cells co-cultured with K562-BCMA positive cells. Format: cell-based. As to conditions: 24 hours, E:T 1:1. On the procedure: as §1
Antigen dependent cytokine secretion was analyzed by co-culturing day 10 CAR T cells with K562-BCMA positive cells for 24 hours at an E:T ratio of 1:1 (with or without AP21967). Culture supernatants were collected and IFNγ production was analyzed using the IFNγ ELISA kit (eBiosciences).
(An ELISA detects its analyte on a solid surface through an enzyme-linked reagent.)

In series [3] the test system is BCMA negative, CD19 positive Nalm-6 cells. Description: Cytotoxicity assay, anti-BCMA salvage CAR T cells co-cultured with Nalm-6-CD19 positive and K562-CD19 negative cells. Format: cell-based. As to conditions: 250 ng pre-loaded receptor, with or without 100 nM AP21967, 24 hr, E:T 2:1. An excerpt:
293 T cells were transduced with lentivirus encoding the dimerizable anti-CD19 salvage receptor to generate a stable source of secreted anti-CD19-scFv-FKBP12 proteins (FIG. 1, right panel). Supernatant containing soluble anti-CD19 salvage receptor polypeptides (anti-CD19 scFV FKBP12) was collected from stable 293T-710 cells and filtered.
The anti-CD19 salvage receptor forms a heterodimer with the anti-BCMA salvage CAR in the presence of AP21967 (FIG. 3A). The cytotoxic potential of anti-BCMA salvage CAR T cells (E) against BCMA negative, CD19 positive Nalm-6 cells (T) was analyzed by co-culturing CAR T cells with a 50:50 mixture of Nalm-6-CD19 positive cells (GFP positive) and K562-CD19 negative cells (BFP positive) for 24 hours at an E:T ratio of 2:1. The co-cultures were treated with vehicle or 100 nM AP21967 and with different volumes of 293T-710 cell supernatant (0 μl, 10 μl, or 30 μl). […] FIG. 3B.
T cells were transduced with lentiviral vectors encoding an anti-BCMA CAR or anti-BCMA salvage CAR. The CART cells were co-cultured with a 50:50 mixture of CD19 positive Nalm-6 cells expressing GFP and CD19 negative K562 cells expressing BFP, in the presence or absence of 250 ng pre-loaded dimerizable anti-CD19 salvage receptor, with or without 100 nM AP21967, for 24 hr, at a 2:1 E:T ratio. […] FIG. 5. AP21967 was not required to trigger the CD19 specific cytotoxicity. […]

The conditions of series [4]: target and assay not given; cited from earlier work.

One may read the IC50 as the midpoint of a concentration-inhibition curve. With `CO[C@H]1[C@@H](O)[C@H](C)C[C@H](C)/C=C/C=C/C=C(\C)[C@@H](c2c[nH]c3c(C)cccc23)C[C@@H]2CC[C@@H](C)[C@@](O)(O2)C(=O)C(=O)N2CCCC[C@H]2C(=O)O[C@H]([C@H](C)C[C@@H]2CC[C@@H](O)[C@H](OC)C2)C[C@H](O)[C@H](C)/C=C(\C)[C@H]1O` [AP21967, C-16-(S)-7-methylindolerapamycin], in the series with K562-BCMA positive cells [1], the “effect of AP21967 on cytotoxicity” value is reported as “no effect on cytotoxicity”. Besides, the “effect of AP21967 in the IFNγ release co-culture” value in the series on K562-BCMA positive cells [2] is on record as “did not substantially affect cytotoxicity”. In addition, the “requirement of AP21967 for CD19 specific cytotoxicity” value in series [3] is listed as “not required”. Besides, the IC50 in series [4] was 10 nM.

(Values after patent US11976116B2, “Salvage chimeric antigen receptor systems” (2seventy bio, Inc., priority 2016, dated 2024).)
